{"source": "patent US20230114728A1", "about": "(Venatorx Pharmaceuticals, Inc., priority 2019, published 2023)", "assay_in_all_cases": "Broth microdilution MIC in CAMHB", "assay_type_in_all_cases": "cell-based", "key": {"[1]": {"system": "A. baumannii ATCC 19606", "details": "Acinetobacter baumannii, ATCC19606; MHB; read-out: Minimum Inhibitory Concentration, A. baumannii ATCC 19606", "procedure,_shortened": "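Colonies from cation-adjusted Mueller Hinton agar are grown in broth (3-5 h, 37° C), adjusted by OD600, and added at 2-8×10^5 CFU/mL to 2-fold compound dilutions. After 16-20 h at 37° C, the lowest concentration without growth is taken as MIC.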"}, "[2]": {"system": "E. coli 901C", "details": "Escherichia coli; E. coli 901C (hyper-permeable); MHB; read-out: Minimum Inhibitory Concentration, E. coli 901C", "procedure,_shortened": "(§1)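 Per CLSI broth microdilution, colonies were grown 3-5 h at 37° C in cation-adjusted Mueller Hinton broth, then diluted to a starting inoculum of 2-8×10^5 CFU/mL against 2-fold serial compound dilutions. Plates were incubated 16-20 h at 37° C, and MIC was read visually as the lowest concentration with no growth.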"}, "[3]": {"system": "E. coli AG100A", "details": "Escherichia coli, read-out: Minimum Inhibitory Concentration, E. coli AG100A", "procedure,_shortened": "as §1"}, "[4]": {"system": "E. coli AG100", "details": "Escherichia coli; E. coli AG100 (wild-type parent); MHB; read-out: Minimum Inhibitory Concentration, E. coli AG100", "procedure,_shortened": "as §1"}, "[5]": {"system": "E. coli ATCC 25922", "details": "Escherichia coli, ATCC25922; E. coli ATCC 25922; MHB; read-out: Minimum Inhibitory Concentration, E. coli 25922", "procedure,_shortened": "as §1"}, "[6]": {"system": "E. coli D22", "details": "Escherichia coli; E. coli D22 (hyper-permeable); MHB; read-out: Minimum Inhibitory Concentration, E. coli D22", "procedure,_shortened": "as §1"}, "[7]": {"system": "K. pneumoniae 848844 producing SHV-11 and KPC-2", "details": "Klebsiella pneumoniae, read-out: Minimum Inhibitory Concentration, K. pneumoniae 848844", "procedure,_shortened": "as §1"}, "[8]": {"system": "K. pneumoniae SI-117 producing VIM-1", "details": "Klebsiella pneumoniae, read-out: Minimum Inhibitory Concentration, K. pneumoniae SI-117", "procedure,_shortened": "as §1"}, "[9]": {"system": "K. pneumoniae UMM producing SHV-5 and KPC-2", "details": "Klebsiella pneumoniae, read-out: Minimum Inhibitory Concentration, K. pneumoniae UMM", "procedure,_shortened": "as §1"}, "[10]": {"system": "P. aeruginosa (ΔmexAB-oprM)", "details": "Pseudomonas aeruginosa, read-out: Minimum Inhibitory Concentration, P. aeruginosa ΔmexAB-OprM", "procedure,_shortened": "as §1"}, "[11]": {"system": "P. aeruginosa ATCC 27853", "details": "Pseudomonas aeruginosa, ATCC27853; MHB; read-out: Minimum Inhibitory Concentration, P. aeruginosa ATCC 27853", "procedure,_shortened": "as §1"}, "[12]": {"system": "P. aeruginosa ATCC 35151", "details": "Pseudomonas aeruginosa, ATCC35151; MHB; hyper-permeable strain; read-out: Minimum Inhibitory Concentration, P. aeruginosa ATCC 35151", "procedure,_shortened": "as §1"}}, "data": [{"compound": "CCN1CCN(C(=O)NC(C(=O)N[C@H]2Cc3cccc(C(=O)O)c3OB2O)c2cc(F)c(C(=O)O)cc2F)C(=O)C1=O", "note": "(stereo partly drawn) [Example 137, (3R)-3-(2-(4-carboxy-2,5-difluorophenyl)-2-(4-ethyl-2,3-dioxopiperazine-1-carboxamido)acetamido)-2-hydroxy-3,4-dihydro-2H-benzo[e][1,2]oxaborinine-8-carboxylic acid]", "values": [{"measurement": "MIC", "setting": "[1]", "value": "> 128", "unit": "µg/mL"}, {"measurement": "MIC", "setting": "[2]", "value": "< 0.25", "unit": "µg/mL"}, {"measurement": "MIC", "setting": "[3]", "value": "8 to 16", "unit": "µg/mL"}, {"measurement": "MIC", "setting": "[4]", "value": "32 to 64", "unit": "µg/mL"}, {"measurement": "MIC", "setting": "[5]", "value": "32 to 64", "unit": "µg/mL"}, {"measurement": "MIC", "setting": "[6]", "value": "8 to 16", "unit": "µg/mL"}, {"measurement": "MIC", "setting": "[7]", "value": "> 128", "unit": "µg/mL"}, {"measurement": "MIC", "setting": "[8]", "value": "> 128", "unit": "µg/mL"}, {"measurement": "MIC", "setting": "[9]", "value": "32 to 64", "unit": "µg/mL"}, {"measurement": "MIC", "setting": "[10]", "value": "8 to 16", "unit": "µg/mL"}, {"measurement": "MIC", "setting": "[11]", "value": "> 128", "unit": "µg/mL"}, {"measurement": "MIC", "setting": "[12]", "value": "0.5 to 1", "unit": "µg/mL"}]}, {"compound": "CCN1CCN(C(=O)NC(C(=O)N[C@H]2Cc3cccc(C(=O)O)c3OB2O)c2cc(Cl)c(C(=O)O)cc2F)C(=O)C1=O", "note": "(stereo partly drawn) [Example 138, (3R)-3-(2-(4-carboxy-5-chloro-2-fluorophenyl)-2-(4-ethyl-2,3-dioxopiperazine-1-carboxamido)acetamido)-2-hydroxy-3,4-dihydro-2H-benzo[e][1,2]oxaborinine-8-carboxylic acid]", "values": [{"measurement": "MIC", "setting": "[1]", "value": "> 128", "unit": "µg/mL"}, {"measurement": "MIC", "setting": "[2]", "value": "< 0.25", "unit": "µg/mL"}, {"measurement": "MIC", "setting": "[3]", "value": "8 to 16", "unit": "µg/mL"}, {"measurement": "MIC", "setting": "[4]", "value": "32 to 64", "unit": "µg/mL"}, {"measurement": "MIC", "setting": "[5]", "value": "32 to 64", "unit": "µg/mL"}, {"measurement": "MIC", "setting": "[6]", "value": "2 to 4", "unit": "µg/mL"}, {"measurement": "MIC", "setting": "[7]", "value": "> 128", "unit": "µg/mL"}, {"measurement": "MIC", "setting": "[8]", "value": "> 128", "unit": "µg/mL"}, {"measurement": "MIC", "setting": "[9]", "value": "32 to 64", "unit": "µg/mL"}, {"measurement": "MIC", "setting": "[10]", "value": "32 to 64", "unit": "µg/mL"}, {"measurement": "MIC", "setting": "[11]", "value": "> 128", "unit": "µg/mL"}, {"measurement": "MIC", "setting": "[12]", "value": "0.5 to 1", "unit": "µg/mL"}]}, {"compound": "CCN1CCN(C(=O)NC(C(=O)N[C@H]2Cc3cccc(C(=O)O)c3OB2O)c2cc(F)c(C(=O)O)c(F)c2)C(=O)C1=O", "note": "(stereo partly drawn) [Example 141, (3R)-3-(2-(4-carboxy-3,5-difluorophenyl)-2-(4-ethyl-2,3-dioxopiperazine-1-carboxamido)acetamido)-2-hydroxy-3,4-dihydro-2H-benzo[e][1,2]oxaborinine-8-carboxylic acid]", "values": [{"measurement": "MIC", "setting": "[1]", "value": "> 128", "unit": "µg/mL"}, {"measurement": "MIC", "setting": "[2]", "value": "< 0.25", "unit": "µg/mL"}, {"measurement": "MIC", "setting": "[3]", "value": "2 to 4", "unit": "µg/mL"}, {"measurement": "MIC", "setting": "[4]", "value": "32 to 64", "unit": "µg/mL"}, {"measurement": "MIC", "setting": "[5]", "value": "32 to 64", "unit": "µg/mL"}, {"measurement": "MIC", "setting": "[6]", "value": "2 to 4", "unit": "µg/mL"}, {"measurement": "MIC", "setting": "[7]", "value": "> 128", "unit": "µg/mL"}, {"measurement": "MIC", "setting": "[8]", "value": "> 128", "unit": "µg/mL"}, {"measurement": "MIC", "setting": "[9]", "value": "32 to 64", "unit": "µg/mL"}, {"measurement": "MIC", "setting": "[10]", "value": "32 to 64", "unit": "µg/mL"}, {"measurement": "MIC", "setting": "[11]", "value": "> 128", "unit": "µg/mL"}, {"measurement": "MIC", "setting": "[12]", "value": "< 0.25", "unit": "µg/mL"}]}, {"compound": "NCCN1CCN(C(=O)NC(C(=O)N[C@H]2Cc3cccc(C(=O)O)c3OB2O)c2ccc(C(=O)O)cc2O)C(=O)C1=O", "note": "(stereo partly drawn) [Example 142, (3R)-3-(2-(4-(2-aminoethyl)-2,3-dioxopiperazine-1-carboxamido)-2-(4-carboxy-2-hydroxyphenyl)acetamido)-2-hydroxy-3,4-dihydro-2H-benzo[e][1,2]oxaborinine-8-carboxylic acid]", "values": [{"measurement": "MIC", "setting": "[1]", "value": "> 128", "unit": "µg/mL"}, {"measurement": "MIC", "setting": "[2]", "value": "2 to 4", "unit": "µg/mL"}, {"measurement": "MIC", "setting": "[3]", "value": "32 to 64", "unit": "µg/mL"}, {"measurement": "MIC", "setting": "[4]", "value": "32 to 64", "unit": "µg/mL"}, {"measurement": "MIC", "setting": "[5]", "value": "> 128", "unit": "µg/mL"}, {"measurement": "MIC", "setting": "[6]", "value": "8 to 16", "unit": "µg/mL"}, {"measurement": "MIC", "setting": "[7]", "value": "> 128", "unit": "µg/mL"}, {"measurement": "MIC", "setting": "[8]", "value": "> 128", "unit": "µg/mL"}, {"measurement": "MIC", "setting": "[9]", "value": "32 to 64", "unit": "µg/mL"}, {"measurement": "MIC", "setting": "[10]", "value": "> 128", "unit": "µg/mL"}, {"measurement": "MIC", "setting": "[11]", "value": "> 128", "unit": "µg/mL"}, {"measurement": "MIC", "setting": "[12]", "value": "2 to 4", "unit": "µg/mL"}]}, {"compound": "CCN1CCN(C(=O)NC(C(=O)N[C@H]2Cc3cccc(C(=O)O)c3OB2O)c2ccc(C(=O)O)cc2F)C(=O)C1=O", "note": "(stereo partly drawn) [Example 145, (3R)-3-(2-(4-carboxy-2-fluorophenyl)-2-(4-ethyl-2,3-dioxopiperazine-1-carboxamido)acetamido)-2-hydroxy-3,4-dihydro-2H-benzo[e][1,2]oxaborinine-8-carboxylic acid]", "values": [{"measurement": "MIC", "setting": "[1]", "value": "> 128", "unit": "µg/mL"}, {"measurement": "MIC", "setting": "[2]", "value": "< 0.25", "unit": "µg/mL"}, {"measurement": "MIC", "setting": "[3]", "value": "8 to 16", "unit": "µg/mL"}, {"measurement": "MIC", "setting": "[4]", "value": "32 to 64", "unit": "µg/mL"}, {"measurement": "MIC", "setting": "[5]", "value": "32 to 64", "unit": "µg/mL"}, {"measurement": "MIC", "setting": "[6]", "value": "2 to 4", "unit": "µg/mL"}, {"measurement": "MIC", "setting": "[7]", "value": "> 128", "unit": "µg/mL"}, {"measurement": "MIC", "setting": "[8]", "value": "> 128", "unit": "µg/mL"}, {"measurement": "MIC", "setting": "[9]", "value": "32 to 64", "unit": "µg/mL"}, {"measurement": "MIC", "setting": "[10]", "value": "8 to 16", "unit": "µg/mL"}, {"measurement": "MIC", "setting": "[11]", "value": "> 128", "unit": "µg/mL"}, {"measurement": "MIC", "setting": "[12]", "value": "< 0.25", "unit": "µg/mL"}]}, {"compound": "CCN1CCN(C(=O)NC(C(=O)N[C@H]2Cc3cccc(C(=O)O)c3OB2O)c2c(Cl)cc(C(=O)O)cc2Cl)C(=O)C1=O", "note": "(stereo partly drawn) [Example 150, (3R)-3-(2-(4-carboxy-2,6-dichlorophenyl)-2-(4-ethyl-2,3-dioxopiperazine-1-carboxamido)acetamido)-2-hydroxy-3,4-dihydro-2H-benzo[e][1,2]oxaborinine-8-carboxylic acid]", "values": [{"measurement": "MIC", "setting": "[1]", "value": "> 128", "unit": "µg/mL"}, {"measurement": "MIC", "setting": "[2]", "value": "< 0.25", "unit": "µg/mL"}, {"measurement": "MIC", "setting": "[3]", "value": "32 to 64", "unit": "µg/mL"}, {"measurement": "MIC", "setting": "[4]", "value": "> 128", "unit": "µg/mL"}, {"measurement": "MIC", "setting": "[5]", "value": "> 128", "unit": "µg/mL"}, {"measurement": "MIC", "setting": "[6]", "value": "2 to 4", "unit": "µg/mL"}, {"measurement": "MIC", "setting": "[7]", "value": "> 128", "unit": "µg/mL"}, {"measurement": "MIC", "setting": "[8]", "value": "> 128", "unit": "µg/mL"}, {"measurement": "MIC", "setting": "[9]", "value": "> 128", "unit": "µg/mL"}, {"measurement": "MIC", "setting": "[10]", "value": "> 128", "unit": "µg/mL"}, {"measurement": "MIC", "setting": "[11]", "value": "> 128", "unit": "µg/mL"}, {"measurement": "MIC", "setting": "[12]", "value": "0.5 to 1", "unit": "µg/mL"}]}]}
